Where two headings read alike, the source gives them in different places.
Conditions: rat, in vivo; for AUC Mean ± SD / Cmax Mean ± SD: po, 50 mg/kg
Method: The following administration liquids were prepared. 10% propylene glycol: a propylene glycol liquid having a concentration of 10% was prepared by diluting propylene glycol with distilled water.
Propolis solution: the required amount of propolis powder (Brazilian green propolis) was weighed and ground in a mortar, and the 10% propylene glycol was added to dissolve the powder to prepare a propolis solution with a concentration of 25 mg/mL as the propolis concentration.
Curcumin suspension: the required amount of curcumin powder (C. longa extract (ethyl acetate extract powder, curcumin content of 95% by mass)) was weighed and ground in a mortar, and then the 10% propylene glycol was added to suspend the powder to prepare a curcumin suspension with a curcumin concentration of 100 mg/mL.
Eighteen 7-week-old male rats (Slc: Wistar/ST, SPF, Japan SLC, Inc.) were acclimated for 7 days. The rats were allowed to freely ingest the solid feed CRF-1 (Oriental Yeast Co., ltd.). The rats were fasted for 8 to 10 hours before the administration of the administration liquids. The rats were divided into three groups of six rats each by a stratified allocation method using EXSUS (Version 10.0.0, EP Croit Co., Ltd.) so that the weight of each group was equal.
In the propolis group, the propolis solution was administered immediately after the administration of 10% propylene glycol. In the propolis+curcumin A group, the propolis solution was administered immediately after the administration of the curcumin suspension. In the propolis+curcumin B group, the propolis solution was administered about 30 minutes after the administration of the curcumin suspension. The administration was carried out in a volume of 2 ml/kg rat body weight for each administration solution. In other words, 50 mg of propolis and 200 mg of curcumin were administered per 1 kg of rat body weight. The administration was carried out under no anesthesia by using a syringe (Terumo Corporation) and an oral feeding needle for rats (Fuchigami Kikai, Ltd).
Blood collection of rats was carried out once 30 minutes before the administration of propolis solution (but before the administration of curcumin suspension in the group with the curcumin suspension administrated) and 0.5, 1, 1.5, 2, 3, 6, 9, and 24 hours after the administration of propolis solution. At each blood sampling time, the tail of rats was disinfected with 70% ethanol under no anesthesia, and then the tip of the tail was cut with a razor to collect about 150 μL of leaking blood by using a hematocrit tube (Fisher Scientific 22-362-566). Nine hours after administration of the propolis solution, feeding was resumed for all fasting animals.
The blood, which had been stored in ice after collection, was centrifuged (1600 ×g, 10 min, 4° C.) using a micro high-speed cooling centrifuge (model MX-100: Tomy Seiko Co., Ltd.) to collect plasma from the blood. The plasma was frozen and stored in a −80° C. freezer.
The concentrations of p-coumaric acid, artepillin C, drupanin, culifolin, capillartemisin A, 3,4-dihydroxy-5-prenyl-(E)-cinnamic acid, and 2,2-dimethylchromene-6-(E)-propenoic acid, kaempferide, 6-methoxy kaempferide, and dihydro kaempferide in the resulting plasma were quantified by LCMS.
For each ingredient, the maximum blood concentration (Cmax) and the area under the curve (AUC) were calculated from the resulting concentrations. AUC is an indicator of the total amount of each ingredient absorbed into the body. […] The ratio in the table indicates the ratio of the mean value of the propolis+curcumin A group to that of the propolis group. Statistics were carried out by t-test.

| Structure (SMILES) | AUC Ratio | Cmax Ratio | AUC Mean ± SD | Cmax Mean ± SD | AUC Ratio (male, Slc: Wistar/ST) | Cmax Ratio (male, Slc: Wistar/ST) | increase in absorption compared to the propolis group |
| --- | --- | --- | --- | --- | --- | --- | --- |
| CC1(C)C=Cc2cc(/C=C/C(=O)O)ccc2O1 [2,2-dimethylchromene-6-(E)-propenoic acid] | 1.27 | 1.56 | 84.5 ± 4.49 | 18.48 ± 4.02 | – | – | – |
| CC(C)=CCc1cc(/C=C/C(=O)O)cc(O)c1O [3,4-dihydroxy-5-prenyl-(E)-cinnamic acid] | – | – | 51.02 ± 28.27 | 7.5 ± 7.5 | 1.25 | 1.53 | – |
| COc1ccc(-c2oc3cc(O)c(OC)c(O)c3c(=O)c2O)cc1 [6-methoxy kaempferide, reference compound] | – | – | – | – | – | – | no significant increase in absorption was observed |
| CC(C)=CCc1cc(/C=C/C(=O)O)cc(CC=C(C)C)c1O [Artepillin C] | 1.39 | 1.7 | 811.33 ± 191.31 | 77.7 ± 13.11 | – | – | – |
| CC(C)=CCc1cc(/C=C/C(=O)O)cc(C/C=C(\C)CO)c1O [Capillartemisin A] | 1.83 | 1.91 | 109.74 ± 12.25 | 10.39 ± 2.01 | – | – | – |
| CC(C)=CCc1cc(/C=C/C(=O)O)cc2c1OC(C)(C)C=C2 [Culifolin] | 1.26 | 1.34 | 1088.92 ± 68.35 | 68.98 ± 5.16 | – | – | – |
| CC(C)=CCc1cc(/C=C/C(=O)O)ccc1O [Drupanin] | 1.41 | 1.98 | 486.19 ± 34.29 | 93.12 ± 19.93 | – | – | – |
| COc1ccc(C2Oc3cc(O)cc(O)c3C(=O)C2O)cc1 (stereo not shown) [dihydro kaempferide, reference compound] | – | – | – | – | – | – | no significant increase in absorption was observed |
| COc1ccc(-c2oc3cc(O)cc(O)c3c(=O)c2O)cc1 [kaempferide, reference compound] | – | – | – | – | – | – | no significant increase in absorption was observed |
| O=C(O)/C=C/c1ccc(O)cc1 [p-Coumaric acid] | – | – | 983.44 ± 372.02 | 343.72 ± 41.6 | 1.07 | 1.42 | – |
